Common to all, as to type: cell-based
In one test the target is human TLR8 (Homo sapiens (Human), UniProt Q9NR97). The experiment in a line: HEK293-Blue-hTLR-8 cells assay. Conditions: HEK293-Blue-hTLR8 cells, R848 stimulation, 20 hrs, SEAP reporter; read-out: HEK/hTLR8 IC50. From the text:
HEK293-Blue-hTLR-8 Cells Assay:
(§1) A stable HEK293-Blue-hTLR-8 cell line was purchased from InvivoGen (Cat. #: hkb-htlr8, San Diego, California, USA). These cells were originally designed for studying the stimulation of human TLR8 by monitoring the activation of NF-κB. A SEAP (secreted embryonic alkaline phosphatase) reporter gene was placed under the control of the IFN-β minimal promoter fused to five NF-κB and AP-1-binding sites. The SEAP was induced by activating NF-κB and AP-1 via stimulating HEK-Blue hTLR8 cells with TLR8 ligands. Therefore the reporter expression was declined by TLR8 antagonist under the stimulation of a ligand, such as R848, for incubation of 20 hrs. The cell culture supernatant SEAP reporter activity was determined using QUANTI-Blue™ kit (Cat. #: rep-Qb1, Invivogen, San Diego, Ca, USA) at a wavelength of 640 nm, a detection medium that turns purple or blue in the presence of alkaline phosphatase.
HEK293-Blue-hTLR8 cells were incubated at a density of 250,000-450,000 cells/mL in a volume of 170 μL in a 96-well plate in Dulbecco's Modified Eagle's medium (DMEM) containing 4.5 g/L glucose, 50 U/mL penicillin, […], […], 2 mM L-glutamine, 10% (v/v) heat-inactivated fetal bovine serum with addition of 20 μL test compound in a serial dilution in the presence of final DMSO at 1% and 10 μL of 60 μM R848 in above DMEM, perform incubation under 37° C. in a CO2 incubator for 20 hrs. Then 20 μL of the supernatant from each well was incubated with 180 μL Quanti-blue substrate solution at 37° C. for […] and the absorbance was read at 620˜655 nm using a spectrophotometer. The signaling pathway that TLR8 activation leads to downstream NF-κB activation has been widely accepted, and therefore similar reporter assay was modified for evaluating TLR8 antagonist.

In a further test the target is human TLR9 (Homo sapiens (Human), UniProt Q9NR96). The experiment in a line: HEK293-Blue-hTLR-9 cells assay. Conditions: HEK293-Blue-hTLR9 cells, ODN2006 stimulation, 20 hrs, SEAP reporter; read-out: HEK/hTLR9 IC50. The text has this:
HEK293-Blue-hTLR-9 Cells Assay:
A stable HEK293-Blue-hTLR-9 cell line was purchased from InvivoGen (Cat. #: hkb-htlr9, San Diego, California, USA). These cells were originally designed for studying the stimulation of human TLR9 by monitoring the activation of NF-κB. A SEAP (secreted embryonic alkaline phosphatase) reporter gene was placed under the control of the IFN-β minimal promoter fused to five NF-κB and AP-1-binding sites. The SEAP was induced by activating NF-κB and AP-via stimulating HEK-Blue hTLR9 cells with TLR9 ligands. Therefore the reporter expression was declined by TLR9 antagonist under the stimulation of a ligand, such as ODN2006 (Cat. #: tlrl-2006-1, Invivogen, San Diego, California, USA), for incubation of 20 hrs. The cell culture supernatant SEAP reporter activity was determined using QUANTI-Blue™ kit (Cat. #: rep-qb1, Invivogen, San Diego, California, USA) at a wavelength of 640 nm, a detection medium that turns purple or blue in the presence of alkaline phosphatase.
(§2) HEK293-Blue-hTLR9 cells were incubated at a density of 250,000˜450,000 cells/mL in a volume of 170 μL in a 96-well plate in Dulbecco's Modified Eagle's medium (DMEM) containing 4.5 g/L glucose, 50 U/mL penicillin, […], […], 2 mM L-glutamine, 10% (v/v) heat-inactivated fetal bovine serum with addition of 20 μL test compound in a serial dilution in the presence of final DMSO at 1% and 10 μL of 20 μM ODN2006 in above DMEM, perform incubation under 37° C. in a CO2 incubator for 20 hrs. Then 20 μL of the supernatant from each well was incubated with 180 μL Quanti-blue substrate solution at 37° C. for 2 h and the absorbance was read at 620-655 nm using a spectrophotometer. The signaling pathway that TLR9 activation leads to downstream NF-κB activation has been widely accepted, and therefore similar reporter assay was modified for evaluating TLR9 antagonist.

Another test concerns the target human TLR7 (Homo sapiens (Human), UniProt Q9NYK1). The experiment in a line: HEK293-Blue-hTLR-7 cells assay. Conditions: HEK293-Blue-hTLR7 cells, R848 stimulation, 20 hrs, SEAP reporter; read-out: HEK/hTLR7 IC50.
Description: HEK293-BLUE-hTLR-7 CELLS ASSAY:
as §1, with “HEK293-Blue-hTLR-7” for “HEK293-Blue-hTLR-8”, “hkb-htlr7,” for “hkb-htlr8,”, “TLR7” for “TLR8”, “hTLR7” for “hTLR8”, “R848 (Resiquimod),” for “R848,”, “rep-qb1,” for “rep-Qb1,”
as §2, with “HEK293-Blue-hTLR7 cells” for “HEK293-Blue-hTLR9 cells”, “μM R848” for “μM ODN2006”, “2 hrs” for “2 h”, “that TLR7” for “that TLR9”, “evaluating TLR7” for “evaluating TLR9”

Chain of human TLR8 (Q9NR97 27-1041): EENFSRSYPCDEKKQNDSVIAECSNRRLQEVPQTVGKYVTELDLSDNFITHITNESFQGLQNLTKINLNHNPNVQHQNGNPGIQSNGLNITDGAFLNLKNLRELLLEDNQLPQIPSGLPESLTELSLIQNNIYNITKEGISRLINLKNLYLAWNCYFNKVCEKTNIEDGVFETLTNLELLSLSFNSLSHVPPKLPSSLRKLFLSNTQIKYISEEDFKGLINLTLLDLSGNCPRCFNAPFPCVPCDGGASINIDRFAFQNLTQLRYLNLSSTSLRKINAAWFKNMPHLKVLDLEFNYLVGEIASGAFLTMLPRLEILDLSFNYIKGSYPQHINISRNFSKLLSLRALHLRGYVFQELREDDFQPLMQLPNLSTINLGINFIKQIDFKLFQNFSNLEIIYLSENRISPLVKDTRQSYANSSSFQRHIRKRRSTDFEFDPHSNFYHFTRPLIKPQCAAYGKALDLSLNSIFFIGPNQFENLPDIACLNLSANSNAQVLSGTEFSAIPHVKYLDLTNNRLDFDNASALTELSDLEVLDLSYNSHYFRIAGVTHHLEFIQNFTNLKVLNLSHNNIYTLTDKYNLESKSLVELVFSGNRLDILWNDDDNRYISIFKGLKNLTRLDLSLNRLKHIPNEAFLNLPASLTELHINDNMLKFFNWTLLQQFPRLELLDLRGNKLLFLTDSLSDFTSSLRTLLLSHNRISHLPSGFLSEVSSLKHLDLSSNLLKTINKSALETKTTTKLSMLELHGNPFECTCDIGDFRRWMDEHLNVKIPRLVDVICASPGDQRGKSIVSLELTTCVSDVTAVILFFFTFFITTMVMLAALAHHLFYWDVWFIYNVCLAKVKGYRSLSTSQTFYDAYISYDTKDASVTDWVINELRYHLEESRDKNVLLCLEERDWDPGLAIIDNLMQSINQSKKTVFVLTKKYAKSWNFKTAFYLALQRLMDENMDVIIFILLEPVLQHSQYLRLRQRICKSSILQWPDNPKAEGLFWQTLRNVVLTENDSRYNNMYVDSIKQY
Chain of human TLR9 (Q9NR96 26-1032): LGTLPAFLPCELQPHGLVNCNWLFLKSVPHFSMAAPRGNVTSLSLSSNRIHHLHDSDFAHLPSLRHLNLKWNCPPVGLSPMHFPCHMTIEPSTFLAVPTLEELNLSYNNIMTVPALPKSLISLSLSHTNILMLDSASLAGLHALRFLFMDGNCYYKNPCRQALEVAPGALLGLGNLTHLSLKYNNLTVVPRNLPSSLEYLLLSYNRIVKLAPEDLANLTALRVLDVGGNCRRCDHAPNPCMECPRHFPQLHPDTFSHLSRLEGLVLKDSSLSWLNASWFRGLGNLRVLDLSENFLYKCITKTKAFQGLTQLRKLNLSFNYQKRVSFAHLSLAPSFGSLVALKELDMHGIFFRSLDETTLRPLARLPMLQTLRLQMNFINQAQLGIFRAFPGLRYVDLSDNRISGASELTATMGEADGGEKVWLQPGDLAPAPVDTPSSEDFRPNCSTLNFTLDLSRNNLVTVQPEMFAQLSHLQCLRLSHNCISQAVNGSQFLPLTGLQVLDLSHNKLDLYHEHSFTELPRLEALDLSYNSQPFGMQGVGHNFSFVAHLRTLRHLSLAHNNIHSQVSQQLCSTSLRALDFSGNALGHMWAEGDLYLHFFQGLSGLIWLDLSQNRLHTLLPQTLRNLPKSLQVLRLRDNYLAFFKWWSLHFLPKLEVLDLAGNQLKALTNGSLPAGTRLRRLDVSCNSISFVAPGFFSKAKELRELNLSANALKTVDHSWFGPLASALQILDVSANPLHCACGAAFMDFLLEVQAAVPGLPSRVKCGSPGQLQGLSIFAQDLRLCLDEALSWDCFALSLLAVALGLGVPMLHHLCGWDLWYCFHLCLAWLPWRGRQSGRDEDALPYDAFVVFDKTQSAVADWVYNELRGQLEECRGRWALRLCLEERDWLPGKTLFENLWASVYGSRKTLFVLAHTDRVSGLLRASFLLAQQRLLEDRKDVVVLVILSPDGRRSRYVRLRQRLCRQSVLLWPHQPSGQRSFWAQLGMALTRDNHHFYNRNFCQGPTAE
Chain of human TLR7 (Q9NYK1 27-1049): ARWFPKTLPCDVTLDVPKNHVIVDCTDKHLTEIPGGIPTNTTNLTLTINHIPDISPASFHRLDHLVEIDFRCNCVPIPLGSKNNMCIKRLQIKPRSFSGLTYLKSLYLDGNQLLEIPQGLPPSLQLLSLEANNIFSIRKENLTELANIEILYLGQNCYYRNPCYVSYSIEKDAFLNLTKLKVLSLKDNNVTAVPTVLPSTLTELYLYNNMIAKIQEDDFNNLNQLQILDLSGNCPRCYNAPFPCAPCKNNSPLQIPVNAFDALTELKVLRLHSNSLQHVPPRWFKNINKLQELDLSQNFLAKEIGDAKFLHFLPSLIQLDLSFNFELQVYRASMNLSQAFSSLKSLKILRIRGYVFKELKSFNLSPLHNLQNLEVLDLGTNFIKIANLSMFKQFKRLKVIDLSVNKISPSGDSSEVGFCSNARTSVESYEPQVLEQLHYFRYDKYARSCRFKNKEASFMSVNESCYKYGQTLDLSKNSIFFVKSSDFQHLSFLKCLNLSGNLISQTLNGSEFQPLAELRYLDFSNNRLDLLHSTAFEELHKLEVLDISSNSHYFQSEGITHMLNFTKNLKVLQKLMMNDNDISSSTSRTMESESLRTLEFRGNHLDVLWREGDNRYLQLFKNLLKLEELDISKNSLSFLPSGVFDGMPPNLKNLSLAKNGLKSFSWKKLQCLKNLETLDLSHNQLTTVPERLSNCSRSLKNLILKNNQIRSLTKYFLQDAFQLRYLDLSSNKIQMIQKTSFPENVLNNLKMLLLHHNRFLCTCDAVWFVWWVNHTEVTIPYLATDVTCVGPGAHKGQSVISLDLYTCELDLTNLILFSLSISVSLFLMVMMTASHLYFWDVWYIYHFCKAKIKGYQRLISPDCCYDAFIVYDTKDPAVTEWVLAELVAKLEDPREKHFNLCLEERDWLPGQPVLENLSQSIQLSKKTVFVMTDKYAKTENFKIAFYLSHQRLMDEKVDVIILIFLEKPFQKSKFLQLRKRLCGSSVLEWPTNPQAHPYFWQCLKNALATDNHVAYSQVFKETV

With `C[C@@H]1CN(c2ccc(C#N)c3ncccc23)C[C@@H]2C[C@@H](Nc3ncc4c(n3)CCNC4)CN21` [Example 6, 5-[(4R,7R,8aS)-4-methyl-7-(5,6,7,8-tetrahydropyrido[4,3-d]pyrimidin-2-ylamino)-3,4,6,7,8,8a-hexahydro-1H-pyrrolo[1,2-a]pyrazin-2-yl]quinoline-8-carbonitrile], the IC50 on human TLR8 was 12.9 nM; at human TLR9 it was 157 nM; on human TLR7 it was 18.8 nM.
On the same counts, the results for `C[C@@H]1CN(c2ccc(C#N)c3ncccc23)C[C@@H]2CC(Oc3ccc4c(n3)CCNC4)CN21` (stereo partly drawn) [Example 14, 5-[(4R,8aS)-4-methyl-7-(5,6,7,8-tetrahydro-1,6-naphthyridin-2-yloxy)-3,4,6,7,8,8a-hexahydro-1H-pyrrolo[1,2-a]pyrazin-2-yl]quinoline-8-carbonitrile] are 4 nM, 247 nM and 16.2 nM.
The corresponding values for `[2H]c1ccc2c(N3C[C@@H]4C[C@H](N5CC(C)(N)C5)CN4[C@H](C)C3)ccc(C#N)c2n1` [Example 17, 5-[(4R,7S,8aS)-7-(3-amino-3-methyl-azetidin-1-yl)-4-methyl-3,4,6,7,8,8a-hexahydro-1H-pyrrolo[1,2-a]pyrazin-2-yl]-2-deuterio-quinoline-8-carbonitrile] are 14.7 nM, 175 nM and 11.3 nM.
On the same counts, the results for `C[C@@H]1CN(c2ccc(C#N)c3ncccc23)C[C@@H]2C[C@H](N3CCc4cc(N5CCNCC5)ccc4C3)CN21` [Example 10, 5-[(4R,7S,8aS)-4-methyl-7-(6-piperazin-1-yl-3,4-dihydro-1H-isoquinolin-2-yl)-3,4,6,7,8,8a-hexahydro-1H-pyrrolo[1,2-a]pyrazin-2-yl]quinoline-8-carbonitrile] are 24.9 nM, 81.1 nM and 30.1 nM.
Regarding `C[C@@H]1CN(c2ccc(C#N)c3ncccc23)C[C@@H]2C[C@@H](Nc3ccc4c(n3)C[C@H](C)NC4)CN21` [Example 8A, 5-[(4R,7R,8aS)-4-methyl-7-[[(7S)-7-methyl-5,6,7,8-tetrahydro-1,6-naphthyridin-2-yl]amino]-3,4,6,7,8,8a-hexahydro-1H-pyrrolo[1,2-a]pyrazin-2-yl]quinoline-8-carbonitrile], the IC50 on human TLR8 was 3.6 nM; on human TLR9, 63.1 nM; on human TLR7, 11.1 nM.
On the same counts, the results for `C[C@@H]1CN(c2ccc(C#N)c3ncccc23)C[C@@H]2C[C@@H](N(C)c3ccc4c(n3)CCNC4)CN21` [Example 5, 5-[(4R,7R,8aS)-4-methyl-7-[methyl(5,6,7,8-tetrahydro-1,6-naphthyridin-2-yl)amino]-3,4,6,7,8,8a-hexahydro-1H-pyrrolo[1,2-a]pyrazin-2-yl]quinoline-8-carbonitrile] are 2.9 nM, 78.1 nM and 16.9 nM.
Regarding `CO[C@@H]1CN(c2ccc3c(n2)CCN([C@H]2C[C@H]4CN(c5ccc(C#N)c6ncccc56)C[C@@H](C)N4C2)C3)C[C@H]1N` [Example 11, 5-[(4R,7S,8aS)-7-[2-[(3R,4R)-3-amino-4-methoxy-pyrrolidin-1-yl]-7,8-dihydro-5H-1,6-naphthyridin-6-yl]-4-methyl-3,4,6,7,8,8a-hexahydro-1H-pyrrolo[1,2-a]pyrazin-2-yl]quinoline-8-carbonitrile], the IC50 at human TLR8 turned out to be 8.5 nM; at human TLR9 it was 59.2 nM; at human TLR7, 23.4 nM.
For `C[C@@H]1CN(c2ccc(C#N)c3ncccc23)C[C@@H]2C[C@@H](Nc3ccc4c(n3)CCN(C)C4)CN21` [Example 4, 5-[(4R,7R,8aS)-4-methyl-7-[(6-methyl-7,8-dihydro-5H-1,6-naphthyridin-2-yl)amino]-3,4,6,7,8,8a-hexahydro-1H-pyrrolo[1,2-a]pyrazin-2-yl]quinoline-8-carbonitrile], the values for the IC50 on human TLR8, at human TLR9 and at human TLR7 were 6.3 nM, 147 nM and 21.7 nM, respectively.
As for `C[C@@H]1CN(c2ccc(C#N)c3ncccc23)C[C@@H]2CC(N3CCN(c4cc5c(cn4)CCNC5)CC3)CN21` (stereo in doubt) [Example 13, 5-[(4R,7R,8aS)-4-methyl-7-[4-(5,6,7,8-tetrahydro-2,6-naphthyridin-3-yl)piperazin-1-yl]-3,4,6,7,8,8a-hexahydro-1H-pyrrolo[1,2-a]pyrazin-2-yl]quinoline-8-carbonitrile], the IC50 at human TLR8 was 8.2 nM; at human TLR9, 49 nM; at human TLR7 it was 14.9 nM.
Regarding `[2H]c1ccc2c(N3C[C@@H]4C[C@H](N5CCC6(CCCNC6)CC5)CN4[C@H](C)C3)ccc(C#N)c2n1` [Example 21, 2-Deuterio-5-[(4R,7S,8aS)-7-(2,9-diazaspiro[5.5]undecan-9-yl)-4-methyl-3,4,6,7,8,8a-hexahydro-1H-pyrrolo[1,2-a]pyrazin-2-yl]quinoline-8-carbonitrile], the IC50 at human TLR8 was found to be 10.3 nM; at human TLR9, 45.1 nM; at human TLR7, 30.4 nM.
`CO[C@@H]1CN(c2cc3c(cn2)CCN([C@H]2C[C@H]4CN(c5ccc(C#N)c6ncccc56)C[C@@H](C)N4C2)C3)C[C@H]1N` [Example 12, 5-[(4R,7S,8aS)-7-[7-[(3R,4R)-3-amino-4-methoxy-pyrrolidin-1-yl]-3,4-dihydro-1H-2,6-naphthyridin-2-yl]-4-methyl-3,4,6,7,8,8a-hexahydro-1H-pyrrolo[1,2-a]pyrazin-2-yl]quinoline-8-carbonitrile]: the IC50 at human TLR8 is 17.2 nM; on human TLR9, 108 nM; at human TLR7, 45.1 nM.
